Experiments:
[1] = molecular target: T1, αvβ3 receptor (purified from human placenta) (Homo sapiens, UniProt P05106+P06756); assay: competition radioligand binding assay, 125I-echistatin to αvβ3 receptor; conditions: Table 10; αvβ3, inhibition of specific 125I-echistatin binding
T1 construct: αvβ3 receptor (purified from human placenta); from tissue; host or cells: human placenta
Experimental: The following assay procedure, which is a competition radioligand binding assay, was carried out to determine the activity of the foregoing compounds as αvβ3 antagonists. The competitive assay procedure described in Kumar, et. al., "Biochemical Characterization Of The Binding Of Echistatin To Integrin αvβ3 Receptor", Journal Of Pharmacology And Experimental Therapeutics, Vol. 283, No. 2, pp. 843-853 (1997) was employed. Thus, binding of ^125I-echistatin (radiolabeled by the chloramine-T method to a specific activity of 2000 Ci/mmol (Amersham, Chicago, Il.)) to αvβ3 receptor (purified from human placenta), both prepared as described in Kumar, et al., was competed by the compounds prepared in the foregoing examples. Purified αvβ3 receptor was coated onto Microlite-2 plates at a concentration of 50 ng/well. ^125I-echistatin was added to the wells to a final concentration of 0.05 nM in binding buffer (50 µl/well) in the presence of the competing test compound. The competing test compounds were employed at serially diluted concentrations ranging from 1 pM to 100 nM. After a 3 hour incubation at room temperature, the wells were washed, and radioactivity, reflecting binding by ^125 I-echistatin to αvβ3 receptors, was determined with Top Count (Packard). Each data point is an average of values from triplicate wells.
Specific binding of ^125I-echistatin was calculated as the difference between the amount of ^125I-echistatin bound in the absence (total binding) and the amount of ^125I-echistatin bound in the presence of a 200-fold molar excess of unlabeled echistatin (nonspecific binding). The efficacy of the test compounds for inhibiting specific binding of ^125I-echistatin to αvβ3 receptors was determined by plotting a graph of specific binding (y-axis) as a function of test compound concentration (x-axis). The concentration of test compound required to inhibit 50% of the specific binding (IC50) was determined from the plot. The IC50 may be directly converted mathematically to Ki, which is a measure of the receptor binding affinity of the compounds under the defined assay conditions.

purified αllbβ3 receptor = purified αllbβ3 receptor (Homo sapiens, UniProt P05106+P08514); assay: similar competitive binding assay with 125I-echistatin on αllbβ3 receptor, used for the specificity index; conditions: Table 10; specificity index IC50 αllbβ3/ IC50 αvβ3
Experimental: To measure the relative affinity of the test compounds for αvβ3 receptors versus affinity for αllbβ3 receptors, similar competitive assays were carried out using purified αllbβ3 receptor and ^125I-echistatin (iodinated using the lactoperoxidase method). The specificity index, which is a measure of the relative binding affinity for αvβ3, versus αllbβ3, may be determined by dividing the IC50 value for αllbβ3 by the IC50 value for αvβ3.

Row | Structure (SMILES) | IC50 [1] | SPECIFICITY αIIbβ3 / αvβ3 (purified αllbβ3 receptor)
1 | CC(C)C(=O)N(Cc1ccc(C(=O)NC[C@H](NC(=O)OCc2ccccc2)C(=O)O)cc1)Cc1nc2ccccc2[nH]1 [Example 5-13] | 3.1 nM | 38
2 | O=C(N[C@@H](CNC(=O)c1ccc(CN(Cc2nc3ccccc3[nH]2)C(=O)CCC2CCCC2)cc1)C(=O)O)OCc1ccccc1 [Example 5-14] | 5.8 nM | 117
3 | O=C(N[C@@H](CNC(=O)c1ccc(CN(Cc2nc3ccccc3[nH]2)C(=O)C2CCCCC2)cc1)C(=O)O)OCc1ccccc1 [Example 5-15] | 4.3 nM | 95
4 | O=C(N[C@@H](CNC(=O)c1ccc(CN(Cc2nc3ccccc3[nH]2)C(=O)CCc2ccccc2)cc1)C(=O)O)OCc1ccccc1 [Example 5-16] | 4.4 nM | 899
5 | CCOC(=O)CCC(=O)N(Cc1ccc(C(=O)NC[C@H](NC(=O)OCc2ccccc2)C(=O)O)cc1)Cc1nc2ccccc2[nH]1 [Example 5-17] | 4.6 nM | 76
6 | CC(=O)OC(C(=O)N(Cc1ccc(C(=O)NC[C@H](NC(=O)OCc2ccccc2)C(=O)O)cc1)Cc1nc2ccccc2[nH]1)c1ccccc1 (stereo partly shown) [Example 5-18] | 4.4 nM | 82
7 | O=C(N[C@@H](CNC(=O)c1ccc(CN(Cc2nc3ccccc3[nH]2)C(=O)COc2ccccc2)cc1)C(=O)O)OCc1ccccc1 [Example 5-19] | 8.9 nM | 34
8 | CCOC(=O)N(Cc1ccc(C(=O)NC[C@H](NC(=O)OCc2ccccc2)C(=O)O)cc1)Cc1nc2ccccc2[nH]1 [Example 5-20] | 7.2 nM | 15
9 | COc1ccc(OC(=O)N(Cc2ccc(C(=O)NC[C@H](NC(=O)OCc3ccccc3)C(=O)O)cc2)Cc2nc3ccccc3[nH]2)cc1 [Example 5-21] | 4.4 nM | 41
10 | O=C(N[C@@H](CNC(=O)c1ccc(CN(Cc2nc3ccccc3[nH]2)C(=O)C2CC2c2ccccc2)cc1)C(=O)O)OCc1ccccc1 (stereo partly shown) [Example 5-22] | 6.4 nM | 26
11 | CSCC(=O)N(Cc1ccc(C(=O)NC[C@H](NC(=O)OCc2ccccc2)C(=O)O)cc1)Cc1nc2ccccc2[nH]1 [Example 5-23] | 5.5 nM | 22
12 | CN(C)CC(=O)N(Cc1ccc(C(=O)NC[C@H](NC(=O)OCc2ccccc2)C(=O)O)cc1)Cc1nc2ccccc2[nH]1 [Example 5-24] | 5.3 nM | 14
13 | COCCC(=O)N(Cc1ccc(C(=O)NC[C@H](NC(=O)OCc2ccccc2)C(=O)O)cc1)Cc1nc2ccccc2[nH]1 [Example 5-25] | 4.5 nM | 52
14 | CCOCC(=O)N(Cc1ccc(C(=O)NC[C@H](NC(=O)OCc2ccccc2)C(=O)O)cc1)Cc1nc2ccccc2[nH]1 [Example 5-26] | 3.5 nM | 91
15 | O=C(N[C@@H](CNC(=O)c1ccc(CN(Cc2nc3ccccc3[nH]2)C(=O)Nc2ccccc2)cc1)C(=O)O)OCc1ccccc1 [Example 5-27] | 1.56 nM | 481
16 | O=C(N[C@@H](CNC(=O)c1ccc(CN(Cc2nc3ccccc3[nH]2)C(=O)NC2CCCCC2)cc1)C(=O)O)OCc1ccccc1 [Example 5-28] | 0.65 nM | 1136
17 | O=C(N[C@@H](CNC(=O)c1ccc(CN(Cc2nc3ccccc3[nH]2)C(=O)NCc2ccccc2)cc1)C(=O)O)OCc1ccccc1 [Example 5-29] | 4.3 nM | 144
18 | O=C(N[C@@H](CNC(=O)c1ccc(CN(Cc2nc3ccccc3[nH]2)C(=S)NCCc2ccccc2)cc1)C(=O)O)OCc1ccccc1 [Example 5-31] | 6 nM | 80

Row | Structure (SMILES) | IC50 [1] | SPECIFICITY αIIbβ3 / αvβ3 (purified αllbβ3 receptor)
19 | CCOc1ccc(NC(=O)N(Cc2ccc(C(=O)NC[C@H](NC(=O)OCc3ccccc3)C(=O)O)cc2)Cc2nc3ccccc3[nH]2)cc1 [Example 5-32] | 6.5 nM | 151
20 | CN(Cc1ccc(C(=O)NC[C@H](NC(=O)OCc2ccccc2)C(=O)O)cc1)Cc1nc2ccccc2[nH]1 [Example 5-33] | 17 nM | 128
21 | CC(C)(C)NC(=O)N(Cc1ccc(C(=O)NC[C@H](NC(=O)OCc2ccccc2)C(=O)O)cc1)Cc1nc2ccccc2[nH]1 [Example 5-34] | 2.3 nM | 421
22 | O=C(N[C@@H](CNC(=O)c1ccc(CN(Cc2nc3ccccc3[nH]2)C(=O)Nc2ccc(Cl)cc2)cc1)C(=O)O)OCc1ccccc1 [Example 5-35] | 8.1 nM | 240
23 | CC(NC(=O)N(Cc1ccc(C(=O)NC[C@H](NC(=O)OCc2ccccc2)C(=O)O)cc1)Cc1nc2ccccc2[nH]1)c1cccc2ccccc12 (stereo partly shown) [Example 5-36] | 11.7 nM | 129
24 | O=C(N[C@@H](CNC(=O)c1ccc(CN(Cc2nc3ccccc3[nH]2)C(=O)Nc2cccc3ccccc23)cc1)C(=O)O)OCc1ccccc1 [Example 5-37] | 5.3 nM | 203
25 | O=C(N[C@@H](CNC(=O)c1ccc(CN(Cc2nc3ccccc3[nH]2)C(=O)Nc2ccc(-c3ccccc3)cc2)cc1)C(=O)O)OCc1ccccc1 [Example 5-38] | 13.6 nM | 49
26 | CCCNC(=O)N(Cc1ccc(C(=O)NC[C@H](NC(=O)OCc2ccccc2)C(=O)O)cc1)Cc1nc2ccccc2[nH]1 [Example 5-39] | 3.1 nM | 223
27 | O=C(N[C@@H](CNC(=O)c1ccc(CN(Cc2nc3ccccc3[nH]2)C(=O)NC23CC4CC(CC(C4)C2)C3)cc1)C(=O)O)OCc1ccccc1 [Example 5-40] | 5.7 nM | 288
28 | O=C(N[C@@H](CNC(=O)c1ccc(CN(Cc2nc3ccccc3[nH]2)C(=O)N2CCOCC2)cc1)C(=O)O)OCc1ccccc1 [Example 5-42] | 1.8 nM | 39
29 | CCNC(=O)N(Cc1ccc(C(=O)NC[C@H](NC(=O)OCc2ccccc2)C(=O)O)cc1)Cc1nc2ccccc2[nH]1 [Example 5-43] | 2.2 nM | 585
30 | O=C(N[C@@H](CNC(=O)c1ccc(CN(Cc2nc3ccccc3[nH]2)C(=O)NS(=O)(=O)c2ccc(Cl)cc2)cc1)C(=O)O)OCc1ccccc1 [Example 5-44] | 19.6 nM | 66.3
31 | CCOC(=O)CNC(=O)N(Cc1ccc(C(=O)NC[C@H](NC(=O)OCc2ccccc2)C(=O)O)cc1)Cc1nc2ccccc2[nH]1 [Example 5-45, N^3-[4-[(benzimidazol-2-yl)methyl][[(ethoxycarbonylmethyl)amino]-carbonyl]aminomethylbenzoyl]-N^2-Cbz-1-2,3-diaminopropionic acid] | 2.2 nM | 1333
32 | COc1ccc(NC(=S)N(Cc2ccc(C(=O)NC[C@H](NC(=O)OCc3ccccc3)C(=O)O)cc2)Cc2nc3ccccc3[nH]2)cc1 [Example 5-46] | 2.7 nM | 1065
33 | CCOC(=O)c1ccc(NC(=O)N(Cc2ccc(C(=O)NC[C@H](NC(=O)OCc3ccccc3)C(=O)O)cc2)Cc2nc3ccccc3[nH]2)cc1 [Example 5-47] | 2.2 nM | 1252
34 | CCOC(=O)[C@H](CCSC)NC(=O)N(Cc1ccc(C(=O)NC[C@H](NC(=O)OCc2ccccc2)C(=O)O)cc1)Cc1nc2ccccc2[nH]1 [Example 5-48] | 1 nM | 2028
35 | O=C(N[C@@H](CNC(=O)c1ccc(CN(Cc2nc3ccccc3[nH]2)C(=O)Nc2ccc(F)cc2)cc1)C(=O)O)OCc1ccccc1 [Example 5-49] | 4.2 nM | 504

Source: patent EP1135374B9, “BENZIMIDAZOLE COMPOUNDS THAT ARE VITRONECTIN RECEPTOR ANTAGONISTS” (SCHERING CORPORATION, priority 1998, dated 2000)
